Experimental data reported in PMC3386930, “Altering APP Proteolysis: Increasing sAPPalpha Production by Targeting Dimerization of the APP Ectodomain” (PLoS ONE, 2012).
“Also recorded” adds a separate entry of the source.

Tests used:
eAPP230–624 [1] = biological target: T1, eAPP230–624 (Homo sapiens, UniProt P05067); test: Intrinsic tryptophan fluorescence of eAPP230–624; format: binding; settings: for quenching constant (Ksv): linear part, equation 1
T1 construct: made in house
Protocol: (§1) The excitation spectra of the intrinsic tryptophan fluorescence were recorded using either a Shimadzu RF-530PC (Shimadzu Scientific Instruments) or a Spectramax XPS spectrophotometer (Molecular Devices).
Full emission spectra were measured with the Shimadzu RF-530PC using a 3 ml quartz cuvette, a 5 nm slit width and protein concentrations between 0.2–0.6 µM. […] For these larger dilutions, control titrations with the protein alone were used to generate a scaling matrix where the scale factor was both a function of wavelength and dilution. […] A similar scaling matrix was used to correct for the effect of dilution with DMSO. […] All titrations were performed at 24°C. The oligomers were stored on ice during the experiment.
These concentrations are analogous to concentrations used to create complexes for the small angle x-ray scattering analysis. The incubated material was diluted with PBS so that the final protein concentration was 0.5 µM. The spectra were recorded with the Shimadzu […].
For experiments with the Spectromax XPS plate reader, an excitation wavelength of 295 nm was used. This excitation wavelength was chosen to minimize both the contribution of tyrosine in the protein and the background fluorescence of the 96-well plates (Costar #3915).
For the quenching experiments, the data were analyzed by constructing Stern-Volmer plots, F0/F vs. Q, where Fo is the intensity of the fluorescence at zero concentration, F is the intensity of the fluorescence, and Q is the concentration of the quenching agent. When quenching is through either a static (binding) or dynamic (collisional) mechanism this plot is linear and follows the equation: [drawing 1] (1) where Ksv is the quenching constant. When both processes are present the Stern-Volmer plot is quadratic: [drawing 2] (2) where KD is the equilibrium constant associated with dynamic quenching and Ks is the equilibrium constant associated with static quenching. All parameters were determined using PRISM (GraphPad) and the appropriate non-linear curve fitting routine.
The centroid wavelength (λc) was calculated as: [drawing 3] (3) where I(λi) is the intensity observed for the wavelength (λi). The range of wavelengths was 310–390 nm.

Aβ oligomers = settings: cited from earlier work
eAPP230–624 [2] = biological target: T1, eAPP230–624; test: Difference absorption spectra of eAPP230–624; format: binding
7W-CHO cells = test: sAPPα and sAPPβ production in 7W-CHO cells (AlphaLISA); format: cell-based; settings: for sAPPα production / α-cleavage of APP (in words): 1 µM compound, 24 hours, 50,000 cells per well, vs 0.01% DMSO
Protocol: (§2) B103 rat neuroblastoma cells and 7W-CHO cells were seeded at 100,000 or 50,000 cells per well in a 96-well plate and allowed to grow for one day. The B103 rat neuroblastoma cells stably expressing human wild-type APP were a kind gift from Dr. Lennart Mucke (J. David Gladstone Institute of Neurological Disease and University of California, San Francisco). The 7W-CHO cells were a kind gift from Dr. Edward Koo (Department of Molecular Pathology, University of California, San Diego). The cell culture medium was then changed and the cells treated with 1 µM disulfiram, 1 µM sulfiram, or 0.01% DMSO (control). After 24 hours, the amount of sAPPα and sAPPβ produced in the medium was quantified using the AL231C and AL232C AlphaLISA kits from Perkin Elmer, respectively, modified using a custom biotinylated APP antibody.
A) Effect of treatment with disulfiram and sulfiram on sAPPα and Aβ production in 7W-CHO cells. 7W-CHO cells were seeded at 50,000 cells per well in a 96-well plate and allowed to grow for one day. The cell culture medium was then changed and the cells treated with 1 µM disulfiram, 1 µM sulfiram, or 0.01% DMSO (control). After 24 hours, the amount of sAPPα and sAPPβ produced in the medium was quantified using the AL231C and AL232C AlphaLISA kit from Perkin Elmer, modified using a custom biotinylated human APP antibody. B) Effect on the ratio of α to β cleavage in 7W-CHO cells, as calculated by dividing the amount of sAPPα to sAPPβ produced by the 50,000 7W-CHO cells during one day under the effect of either disulfiram, sulfiram or a DMSO control. C) Effect on the ratio of α to β cleavage in B103 cells. B103 neuroblastoma cells were seeded at 100,000 cells per well in a 96-well plate and allowed to grow for one day. The cell culture medium was then changed and the cells treated with 1 µM disulfiram, 1 µM sulfiram, or 0.01% DMSO (Control). After 24 hours, the amount of sAPPα and sAPPβ produced in the medium was quantified using the same modified AL231C and AL232C AlphaLISA kit from Perkin Elmer. The ratio of α to β cleavage was calculated by dividing the amount of sAPPα to sAPPβ produced by the 100,000 B103 cells during one day under the effect of the disulfiram, sulfiram or DMSO control.

[3] = test system: B103 rat neuroblastoma cells stably expressing human wild-type APP; test: sAPPα and sAPPβ production in B103 cells (AlphaLISA); format: cell-based; settings: 1 µM compound, 24 hours, 100,000 cells per well, vs 0.01% DMSO
Protocol: as §2
A) Effect of treatment with disulfiram and sulfiram on sAPPα and Aβ production in 7W-CHO cells. […] After 24 hours, the amount of sAPPα and sAPPβ produced in the medium was quantified using the AL231C and AL232C AlphaLISA kit from Perkin Elmer, modified using a custom biotinylated human APP antibody. B) Effect on the ratio of α to β cleavage in 7W-CHO cells, as calculated by dividing the amount of sAPPα to sAPPβ produced by the 50,000 7W-CHO cells during one day under the effect of either disulfiram, sulfiram or a DMSO control. […]

MBP-eAPP230–624 = test: Small-angle X-ray scattering (SAXS) of MBP-eAPP230–624 complexes; format: binding; settings: 50 µM compound, 1:12 molar ratio, PBS plus 2% DMSO
Protocol: as §1
(§3) The samples were incubated on ice for 20 minutes and then concentrated to 50 µl with 10-kDa cutoff concentrators (Millipore). […] Samples of the filtrates were used for buffer subtraction.
(§4) The samples were then concentrated and purified with a Superdex S200 size-exclusion column with 20 mM Tris pH 7.4, 100 mM sodium chloride and 2 mM EDTA. Samples of the protein buffer from the size-exclusion columns were used for buffer subtraction.
(§5) Data collection and processing
(§6) Small-angle X-ray scattering data were collected using protein concentrations in the range of 0.5–3 mg/ml and an X-ray wavelength of 1.11 Å at beam line 12.3.1 (Advanced Light Source). Data were integrated with software customized for the beam line and processed with the program PRIMUS [30]. The program GNOM [31] was used to calculate the maximum dimension and the radius of gyration and to estimate the intensity of the scattering at zero angle for higher concentration samples.

[4] = biological target: eAPP_(230–624), fragment of the APP ectodomain containing residues 230–624 (UniProt P05067); test: small-angle X-ray scattering (SAXS); eAPP fragment incubated on ice with Aβ oligomers or Aβ fragments (peptide less than 10 µM), concentrated and purified on Superdex S200 in 20 mM Tris pH 7.4, 100 mM sodium chloride, 2 mM EDTA
[5] = biological target: TRX-eAPP_(290–624), thioredoxin fusion protein containing residues 290–624 of APP695 (UniProt P05067); test: as above
[6] = biological target: MBP-eAPP_(230–624), maltose binding protein fusion protein containing residues 230–624 (UniProt P05067); test: small-angle X-ray scattering (SAXS); 150 µl MBP-eAPP230-624 (≈0.5 mg/ml) diluted with 400 µl of peptide solution, 20 minutes on ice, concentrated to 50 µl with 10-kDa cutoff concentrators
eAPP230–624 [7] = biological target: T1, eAPP230–624; test: Small-angle X-ray scattering (SAXS) of eAPP230–624 complexes; format: binding; settings: for MWcalc/MWseq: SAXS relative mass, MWseq 45-kDa for eAPP230–624, max. error ±0.2, monomer around 1.3, protein alone 2.0; for Dmax / Rg: SAXS, GNOM, eAPP230–624 with peptide; for Dmax: maximum dimension, max. estimated error ±10 Å; for Rg: radius of gyration, max. estimated error ±2 Å
Protocol: as §3, §4, §5, §6

[8] = Size-exclusion chromatography of Aβ fragments; format: physicochemical; settings: Superdex 75 column, PBS, indicates smaller dimers or monomers
Text: The arrow indicates the direction of shift of the fluorescence peak. […] The black line indicates the starting concentration and the blue line indicates the final concentration. The arrow indicates the direction of shift of the fluorescence peak.

neuronal cells = settings: similar activity; reference not printed with this sentence, 42 for APP319–335; cited from earlier work
Text: A 17-amino acid peptide (APP319–335) that contains the RERMS sequence is an example of such a compound. […] The mechanism by which the RERMS peptide enhances the producti ...

APP = settings: cited from earlier work
Text: These changes in conformation may be important in setting the balance between α-cleavage and β-cleavage of APP because the relative rates of these cleavages are known to be affected by interactions between APP and a number of proteins, both at the cell surface and during recycling of APP [19], [20]. Altering the balance of these two cleavages to favor α-cleavage is of potential therapeutic benefit for Alzheimer's disease since it would reduce Aβ production and enhance sAPPα production, without inhibition of the beta and gamma secretases. A precedent exists for this effect in that an increa ...

[9] = 0.64 µM eAPP230–624, RERMS 0–270 µM

O=S(=O)(O)c1cccc2cccc(Nc3ccccc3)c12 [1,8-ANS, 1-anilinonaphthalene-8-sulfonic acid]
fluorescence intensity drop (eAPP230–624 [1]; 1,8-ANS below 50 µM (1:14 protein to 1,8-ANS molar ratio)): more than 50%
quenching of fluorescence at high concentration (eAPP230–624 [1]; 1,8-ANS greater than 150 µM): quench nearly all the fluorescence
quenching of intrinsic fluorescence (FRET) (eAPP230–624 [1]; 1:20 protein to 1,8-ANS molar ratio, excitation wavelengths greater than 285 nm): efficiently quenched the intrinsic fluorescence
quenching constant (Ksv) (eAPP230–624 [1]; 345 nm, Shimadzu RF-530PC, 0.64 µM eAPP230–624, 24°C): 9.3 ± 0.1 mM⁻¹
quenching constant (Ksv) (eAPP230–624 [1]; 375 nm, Shimadzu RF-530PC, 0.64 µM eAPP230–624, 24°C): 10.9 ± 0.2 mM⁻¹
quenching constant (Ksv) (eAPP230–624 [1]; 375 nm, Spectramax XPS plate reader): 9.6 ± 0.3 mM⁻¹
binding to Aβ oligomers and Aβ aggregation (Aβ oligomers): bind to Aβ oligomers and prevent Aβ aggregation
effect on absorption of eAPP230–624 (eAPP230–624 [2]; one-to-ten molar ratio protein to 1,8-ANS, 3 µM eAPP230–624): significant effect on the absorption

CCN(CC)C(=S)SC(=S)N(CC)CC [Sulfiram]
sAPPα production / α-cleavage of APP (in words) (7W-CHO cells): increase sAPPα production
sAPPα production / α-cleavage of APP (in words) (7W-CHO cells; listed as sulfiram): significantly enhance the production of sAPPα; also recorded: enhance α-cleavage significantly
relative ability to enhance sAPPα production in cells (in words) (7W-CHO cells; sulfiram vs disulfiram, cell line not stated at place): reduced ability to enhance sAPPα production in cells
quenching of intrinsic fluorescence (in words) (eAPP230–624 [1]; 0.64 µM eAPP230–624, disulfiram 0–130 µM, sulfiram 0–320 µM, Shimadzu RF-530PC): significantly quenched the intrinsic fluorescence
effect on dimerization of the ectodomain fragment (in words) (eAPP230–624 [1]; intrinsic fluorescence, confirmed with SAXS): inhibit dimerization of the ectodomain fragment
sAPPα production / α-cleavage of APP (in words) [3]: significantly enhance the production of sAPPα; also recorded: enhance α-cleavage significantly
effect on monomer-dimer equilibrium / dimerization of MBP-eAPP230–624 (in words) (MBP-eAPP230–624): significantly affected the monomer-dimer equilibrium of MBP-eAPP230–624 in favor of the monomer; also recorded: shift the monomer-dimer equilibrium in favor of the monomer
change in extinction coefficient (eAPP230–624 [2]; 1:6 molar ratio, 8.3 µM eAPP230–624, 50 µM compound, PBS plus 2% DMSO): significant drop in the extinction coefficient

Aβ1-28 (peptide)
MWcalc/MWseq (apparent mass of the sample over the sequence mass of the eAPP fragment) [4]: 0.9
MWcalc/MWseq (apparent mass of the sample over the sequence mass of the eAPP fragment) [5]: 1.5
MWcalc/MWseq (apparent mass of the sample over the sequence mass of the eAPP fragment) [6]: 1.2

Aβ1-28: Aβ fragment
inhibition of eAPP dimerization (in words) (eAPP230–624 [1]; legend of titration of 0.64 µM eAPP230–624 with 0–60 µM fragment): inhibit eAPP dimerization
pattern of changes in the intrinsic fluorescence (in words) (eAPP230–624 [1]; titration of 0.64 µM eAPP230–624, 345 nm): acted like Aβ1-40 dimers in terms of the changes in the intrinsic fluorescence
MWcalc/MWseq (eAPP230–624 [7]): 0.9
Dmax (eAPP230–624 [7]): 170 Å
Rg (eAPP230–624 [7]): 46 Å
elution later than the 7-kDa peak [8]: 0.5 mls

RERMS [The RERMS peptide itself (APP 328–332)]
fold reduced potency vs APP319–335 (neuronal cells): 10 -fold
red-shift in the centroid wavelength (eAPP230–624 [1]; [9]): 1 nm
red-shift in the peak position (eAPP230–624 [1]; [9]): approximately 2 nm
effect on intensity of intrinsic fluorescence (in words) (eAPP230–624 [1]; 0.64 µM eAPP230–624, RERMS 0–270 µM (1:0–1:420)): quenches the intensity of the intrinsic fluorescence
SAXS form of eAPP230–624 complex (in words) (eAPP230–624 [7]; SAXS of complex): dimer with a significantly smaller maximum dimension and radius of gyration than the native dimer
MWcalc/MWseq (eAPP230–624 [7]): 1.8
Dmax (eAPP230–624 [7]): 130 Å
Rg (eAPP230–624 [7]): 39 Å

sAPPα: product of α-cleavage of APP; contains almost the entire ectodomain
inhibition of APP dimerization and cell survival (in words) (APP): inhibit APP dimerization and increase cell survival
